The results in this text go back to article PMC8834506, “Optimization of Thymidine Kinase-Based Safety Switch for Neural Cell Therapy” (Cells, 2022).

Where two headings read alike, the source gives them in different places.

Assay [1] deals with hESC (HS420) expressing Ki67-SR39. Briefly: ATP-based cell survival assay, GCV-induced cell death. The settings on record: for EC50: Homo sapiens. More on the design: species or system human. Here is the method:
(§1) Our first generation of suicide gene was engineered with the wild type thymidine kinase (wt-TK). To improve the suicide gene efficacy, we investigated different TK variants; wt-TK, 30-GMK, SR39, SR39h, and SR39h D116E variants. These sequences were chosen based on the analysis of the literature investigating HSV1-TK variants, as well as a gain of function mutation in the CMV UL-97 kinase. The efficacy of each variants was determined as percentage of cell survival following prodrug treatment compared to non-treated hESC. For this purpose, we used the ATP-based assay, which measures cellular ATP content and thereby provides a reliable estimate of the number of healthy cells. The 50% effective concentration (EC50) was defined as the drug concentration required to reduce the percentage of cell survival by 50%. […] In order to optimize our system, we first replaced the wt-TK by the 30-GMK variant, which is a fusion between the 30 TK variant and guanylate kinase (GMK). Note that GMK is mediating the second phosphorylation step of antiviral nucleoside analogs. […] Microbial codon usage might not yield optimal results in human cells. We therefore adapted the SR39 sequence to a typical human codon usage. For this purpose, 218 of the total 376 codons of the SR39 sequence were changed (for details see Supplementary Sequence 1 and Method section). We will refer to this sequence as the SR39h variant.
(§2) Figure 1 EC50 of ganciclovir (GCV) in cell expressing different thymidine kinase (TK) variants. […] Number of surviving cells was monitored using bioluminescent ATP-based assay. […]
Cell culture plate (96 wells plate Corning #3907, Corning, Lonay, Switzerland) were pre-coated with 60 μL per well of Poly-L-ornithine solution (Sigma, Merk, Eysins, Switzerland) at 37 °C for 30 min. […] For EC50 assays, the medium was changed daily for 4 days, then cell viability was assessed using an ATP-based assay. EC50 values for each construct were calculated using a four parameters equation (GraphPad, Prism8, San Diego, CA, USA). […]

The subject of assay [2] is hESC (HS420) expressing Ki67-SR39h D116E. The assay is described as above. To be noted: Homo sapiens. The method, then:
as §1, with “For this purpose, 218 of the total 376 codons of the SR39 sequence were changed (for details see Supplementary Sequence 1 and Method section). We will refer to this sequence as the SR39h variant.” left out
as §2

`Nc1nc(O)c2ncn(COC(CO)CO)c2n1` [GCV, ganciclovir]: the “Fold increase compare to wt-TK (fold reduction in EC50)” value in assay [1] (GCV EC50 ratio, Ki67-SR39 vs wt-TK) is recorded as 50 fold. Moreover, the EC50 in assay [1] (96 h, read-out: EC50 of GCV (cell survival)) came to 2 nM; in assay [1] (96 h GCV exposure, Ki67-SR39, read-out: GCV EC50) it was 1.9 nM; in assay [2] (96 h, read-out: GCV EC50 in M), 0.56 nM; in assay [2] (96 h GCV exposure, SR39h D116E variant, read-out: EC50 of GCV (cell survival)) it was 0.6 nM.
